# Patent US5124146A, “Differential delivery of therapeutic agents across the blood brain barrier” (The State of Oregon Acting by and through the State Board …, priority 1991, dated 1992)
# “And” between values parts separate entries of the source, which are not always exact repeats. Equal values may be shown once.
# What was measured:
# serum proteins = assay: non-specific precipitation/binding of gentamicin to serum proteins and tissue (pre-antibody serum, or non-immune serum); assay type: in vivo, Sprague-Dawley rat; details: non-immune serum, pre and post serum
# Excerpt: (§1) Pre: Precipitable radioactivity from serum prior to antibody
# (§2) Post: Precipitable radioactivity from serum after antibody administration
# (§3) PPer: Precipitable radioactivity from serum after perfusion of rat
# (§4) % Bound: Percent precipitable radioactivity from tissue sample
# antigentamicin antibody = assay: precipitable radioactivity (% bound) in tissue and serum after antigentamicin antibody (immune serum); assay type: in vivo
# Excerpt: as §1, §2, §3, §4
# [1] = percent clearance of activity from serum by perfusion; assay type: in vivo, Sprague-Dawley rat; details: for C1: percent clearance of activity from serum: individual rat, postperfusion/preperfusion × 100
# Experimental: Subsequently, dosages of ^125 I-gentamicin were administered intravenously.
# C1: Percent clearance of activity from serum
# [2] = injected directly into the rat brain; cited from earlier work
Compound,non-specific precipitation with serum proteins (in words) (serum proteins),"% Bound: percent precipitable radioactivity from tissue sample, LH (non abscess bearing hemisphere) (antigentamicin antibody; individual rat)","% Bound, Post: precipitable radioactivity from serum after antibody administration (antigentamicin antibody; individual rat, 15 minutes after antibody)","% Bound, P-Per: precipitable radioactivity from serum after perfusion of rat (antigentamicin antibody; individual rat, after perfusion)","% Bound (tissue), AB (abscess), mean value (antigentamicin antibody; mean) [%]","% Bound (tissue), LH (non abscess bearing hemisphere), mean value (antigentamicin antibody; mean) [%]","% Bound, Post: serum precipitation after antibody, mean value (antigentamicin antibody; mean, 15 minutes after antibody) [%]","% Bound, P-Per: serum precipitation after perfusion, mean value (antigentamicin antibody; mean, after perfusion) [%]",C1: percent clearance of activity from serum ([1]; Immune serum),"C1: percent clearance of activity from serum, mean value ([1]; Immune serum) [%]",C1: percent clearance of activity from serum ([1]; Non immune serum),"C1: percent clearance of activity from serum, mean value ([1]; Non immune serum) [%]",effect on BBB permeability [2]
gentamicin,nonspecifically precipitates with serum proteins,49% and 55% and 52% and 41% and 50%,97% and 96% and 94%,75% and 70% and 79% and 77%,56,51,96,70,99% and 97% and 92% and 95% and 94% and 96%,96,84% and 86% and 85%,85,
CCCCC/C=C\C/C=C\C/C=C\C/C=C\CCCC(=O)O [arachidonic acid],,,,,,,,,,,,,increase BBB permeability
